Measurements published in patent US7598237B2 (Wyeth, priority 2004, dated 2009).

Target: T1, progesterone receptor (PR) (Homo sapiens, UniProt P06401)
T1 construct: effect on alkaline phosphatase activity in T47D cells; endogenous in cells; host or cells: T47D cells
T1 sequence (P06401 1-933): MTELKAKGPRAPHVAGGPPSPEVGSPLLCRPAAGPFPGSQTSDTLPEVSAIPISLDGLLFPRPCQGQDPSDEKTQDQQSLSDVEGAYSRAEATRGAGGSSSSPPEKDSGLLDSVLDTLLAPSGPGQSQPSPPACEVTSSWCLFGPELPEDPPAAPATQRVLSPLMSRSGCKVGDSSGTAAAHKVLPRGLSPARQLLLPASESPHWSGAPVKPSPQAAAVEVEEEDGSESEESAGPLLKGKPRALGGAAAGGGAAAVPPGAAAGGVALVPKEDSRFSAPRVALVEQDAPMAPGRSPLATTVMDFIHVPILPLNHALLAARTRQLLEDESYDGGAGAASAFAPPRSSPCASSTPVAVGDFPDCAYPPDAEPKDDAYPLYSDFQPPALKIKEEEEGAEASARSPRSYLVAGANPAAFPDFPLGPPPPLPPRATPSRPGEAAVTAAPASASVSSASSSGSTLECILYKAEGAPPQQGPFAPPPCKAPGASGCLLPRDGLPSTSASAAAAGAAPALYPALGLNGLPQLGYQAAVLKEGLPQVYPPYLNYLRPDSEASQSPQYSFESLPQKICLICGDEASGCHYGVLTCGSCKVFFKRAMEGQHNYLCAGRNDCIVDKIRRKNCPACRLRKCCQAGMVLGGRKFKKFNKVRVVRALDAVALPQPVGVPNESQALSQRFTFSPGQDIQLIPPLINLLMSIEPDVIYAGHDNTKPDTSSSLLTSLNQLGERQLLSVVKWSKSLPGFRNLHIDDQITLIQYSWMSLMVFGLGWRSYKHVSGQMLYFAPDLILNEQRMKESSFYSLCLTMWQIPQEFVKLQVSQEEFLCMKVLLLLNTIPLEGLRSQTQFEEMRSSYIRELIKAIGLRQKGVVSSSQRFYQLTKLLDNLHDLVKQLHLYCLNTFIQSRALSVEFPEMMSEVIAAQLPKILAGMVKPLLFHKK
Assay: T47D cell alkaline phosphatase assay
Type: cell-based
Conditions: T47D cells; antagonist mode, in the presence of 1 nM progesterone; first TABLE 2; read-out: Alk. Phos. IC50
Description: (4) T47D Cell Alkaline Phosphatase Assay
To identify progestins or antiprogestins by determining a compound's effect on alkaline phosphatase activity in T47D cells.
DMEM:F12 (1:1) (GIBCO, BRL) supplemented with 5% (v/v) charcoal stripped fetal bovine serum (not heat-inactivated), 100 U/ml penicillin, […], and 2 mM GlutaMax (GIBCO, BRL).
I. 0.1 M Tris-HCl, pH 9.8, containing 0.2% Triton X-100
II. 0.1 M Tris-HCl, pH 9.8 containing 4 mM p-nitrophenyl phosphate (Sigma).
Frozen T47D cells were thawed in a 37° C. water bath and diluted to 280,000 cells/ml in culture medium. To each well in a 96-well plate (Falcon, Becton Dickinson Labware), 180 μl of diluted cell suspension was added. Twenty μl of reference or test compounds diluted in the culture medium was then added to each well. […] The cells were incubated at 37° C. in a 5% CO2/humidified atmosphere for 24 hr.
Note: For high throughput screening, one concentration of each compound was tested at 0.3 mg/ml. Based on an average molecular weight of 300 g/mol for the compounds in the library, the concentration was approximately 1 mM. […] Alkaline Phosphatase Enzyme Assay: […]
For reference and test compounds, a dose response curve was generated for dose (X-axis) vs. the rate of enzyme reaction (slope) (Y-axis). […] EC50 or IC50 values were calculated from the retransformed values. […]

| SMILES | IC50 [nM] |
| --- | --- |
| Cn1c(C#N)ccc1-c1ccc2c(c1)C(c1cccs1)(c1cccs1)OCC(=O)N2 [Compound 14, 1-Methyl-5-(2-oxo-5,5-dithien-2-yl-1,2,3,5-tetrahydro-4,1-benzoxazepin-7-yl)-1H-pyrrole-2-carbonitrile] | 11.3 |
| CCC1(c2cccs2)OCC(=O)Nc2ccc(-c3ccc(C#N)n3C)cc21 (centres unmarked) [Compound 19, 5-(5-Ethyl-2-oxo-5-thien-2-yl-1,2,3,5-tetrahydro-4,1-benzoxazepin-7-yl)-1-methyl-1H-pyrrole-2-carbonitrile] | 14.6 |

Tested on: not given
Assay: not given
Conditions: not given

| SMILES | melting point [°C] |
| --- | --- |
| CC1(C)OCC(=O)Nc2ccc(-c3cc(F)cc(C#N)c3)cc21 [Compound 3, 3-(5,5-dimethyl-2-oxo-1,2,3,5-tetrahydro-4,1-benzoxazepin-7-yl)-5-fluorobenzonitrile] | 238 to 239 |
| Cn1c(C#N)ccc1-c1ccc2c(c1)C(C)(c1cccs1)OCC(=O)N2 (centres unmarked) [Compound 6, 1-Methyl-5-[5-methyl-2-oxo-5-(2-thienyl)-1,2,3,5-tetrahydro-4,1-benzoxazepin-7-yl]-1H-pyrrole-2-carbonitrile] | 197 to 198 |
| CCC1(c2cccs2)OCC(=O)Nc2ccc(-c3ccc(F)c(C#N)c3)cc21 (centres unmarked) [Example 139, 5-(5-Ethyl-2-oxo-5-thien-2-yl-1,2,3,5-tetrahydro-4,1-benzoxazepin-7-yl)-2-fluorobenzonitrile] | 197 to 199 |
| CCC1(c2cccs2)OCC(=O)Nc2ccc(-c3sc(C#N)cc3C)cc21 (centres unmarked) [Example 140, 5-(5-Ethyl-2-oxo-5-thien-2-yl-1,2,3,5-tetrahydro-4,1-benzoxazepin-7-yl)-4-methylthiophene-2-carbonitrile] | 182 to 184 |
| CCC1(c2cccs2)OCC(=O)Nc2ccc(-c3coc(C#N)c3)cc21 (centres unmarked) [Example 141, 4-(5-Ethyl-2-oxo-5-thien-2-yl-1,2,3,5-tetrahydro-4,1-benzoxazepin-7-yl)-2-furonitrile] | 99 to 100 |
| CCC1(c2cccs2)OCC(=O)Nc2ccc(-c3csc(C#N)c3)cc21 (centres unmarked) [Example 143, 4-(5-Ethyl-2-oxo-5-thien-2-yl-1,2,3,5-tetrahydro-4,1-benzoxazepin-7-yl)thiophene-2-carbonitrile] | 202 to 204 |
